Laboratory results: US5736380A, “Maltose-trehalose converting enzyme, and preparation and uses thereof” (Kabushiki Kaisha Hayashibara Seibutsu Kagaku Kenkyujo, priority 1993, dated 1998)
“Also recorded” adds a separate entry of the source. Counter-ions that a name gives are not always drawn.

Legend:
[1] = molecular target: T1, maltose-trehalose converting enzyme derived from Pimelobacter sp. R48 (Pimelobacter sp., UniProt P72235); test: Inhibition of enzyme activity; assay type: biochemical; details: one mM Cu^++ or Hg^++, 50 mM Tris-HCl buffer
T1 construct: The culture obtained in Experiment 1 was centrifuged to obtain an about 0.5 kg wet cells; endogenous in cells; host or cells: Pimelobacter sp; R48 (FERM BP-4315), enzyme purified from the disrupted wild-type cells
T1 sequence (P72235 1-573): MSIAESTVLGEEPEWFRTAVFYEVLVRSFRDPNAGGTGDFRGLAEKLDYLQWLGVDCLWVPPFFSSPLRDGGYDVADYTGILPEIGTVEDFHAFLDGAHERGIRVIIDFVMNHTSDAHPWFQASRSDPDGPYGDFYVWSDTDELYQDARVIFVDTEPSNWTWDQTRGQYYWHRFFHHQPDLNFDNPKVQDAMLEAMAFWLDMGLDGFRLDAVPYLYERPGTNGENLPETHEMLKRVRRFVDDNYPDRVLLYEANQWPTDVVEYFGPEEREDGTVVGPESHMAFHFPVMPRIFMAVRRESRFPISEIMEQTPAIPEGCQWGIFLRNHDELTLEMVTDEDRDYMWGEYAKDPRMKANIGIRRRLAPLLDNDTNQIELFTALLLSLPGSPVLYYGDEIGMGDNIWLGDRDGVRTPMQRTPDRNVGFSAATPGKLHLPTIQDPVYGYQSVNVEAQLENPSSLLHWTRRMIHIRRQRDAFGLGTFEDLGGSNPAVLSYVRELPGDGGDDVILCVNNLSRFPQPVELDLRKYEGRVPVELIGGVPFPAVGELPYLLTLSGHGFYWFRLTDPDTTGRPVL
Method: (§1) The activity of the present maltose-trehalose converting enzyme is assayed as follows: One ml of an enzyme solution is added to one ml of 20 w/v % maltose as a substrate in 10 mM phosphate buffer (pH 7.0), and the mixture solution is incubated at 25° C., 35° C. or 60° C. for 60 min, followed by the heating the solution at 100° C. for 10 min to suspend the enzymatic reaction. To the resultant reaction mixture is precisely diluted by 11-fold with 50 mM phosphate buffer (pH 7.5), and 0.4 ml of the diluted solution is admixed with 0.1 ml of a trehalase solution having one unit/ml of trehalase. The resultant solution is incubated at 45° C. for 120 min, followed by determining the amount of glucose by the glucose-oxidase method. As a control, by using trehalase and an enzyme solution, which were preheated at 100° C. for 10 min to inactivate the enzyme, the activity of the enzyme solution is assayed similarly as above. With the above assay, the content of trehalose, formed by the present maltose-trehalose converting enzyme, is determined based on the amount of glucose formed, and one unit activity of the enzyme is defined as the amount of enzyme which forms one μmole of trehalose per minute. As regards to the reaction temperature, it is set to 25° C. for the enzyme of a microorganism of the genus Pimelobacter; 35° C. for that of the genus Pseudomonas; and 60° C. for that of the genus Thermus.
Effects of temperature and pH on the activity of the present enzyme were studied in accordance with the method as used for assaying the enzyme activity. […] The thermal stability of the enzyme was determined by incubating it in 50 mM phosphate buffers (pH 7.0) in test tubes at different temperatures for 60 min, cooling the test tubes with cold water, and assaying the residual enzyme activity in each buffer. The pH stability of the enzyme was determined by incubating it in 50 mM phosphate buffers having different pHs at 20° C. for 60 min, adjusting the buffers to pH 7.0, and assaying the residual enzyme activity in each buffer.

[2] = molecular target: maltose-trehalose converting enzyme derived from Pseudomonas putida H262 (Pseudomonas putida, UniProt Q88FN0); test: Inhibition of enzyme activity; assay type: biochemical; details: one mM Cu^++ or Hg^++, 50 mM Tris-HCl buffer
Method: as §1, with “The resultant solution is incubated at 45° C. for 120 min, followed by determining the amount of glucose by the glucose-oxidase method.” left out, “With the above assay, the content of trehalose, formed by the present maltose-trehalose converting enzyme, is determined based on the amount of glucose formed, and one unit activity of the enzyme is defined as the amount of enzyme which forms one μmole of trehalose per minute.” left out
Effects of temperature and pH on the activity of the present enzyme were studied in accordance with the method as used for assaying the enzyme activity. The results were respectively shown in FIG. 5 (effect of temperature) and FIG. 6 (effect of pH). The optimum temperature of the enzyme was about […] when incubated at pH 7.0 for 60 min and the optimum pH was about 7.3-8.3 when incubated at 35° C. for 60 min. The thermal stability of the enzyme was determined by incubating it in containers with 50 mM phosphate buffers (pH 7.0) at different temperatures for 60 min, cooling the resultant buffers in the containers with cold water, and assaying the residual enzyme activity in each buffer. The pH stability of the enzyme was determined by incubating it in 50 mM phosphate buffers having different pHs at 35° C. for 60 min, adjusting the resultant buffers to pH 7.0, and assaying the residual enzyme activity in each buffer. The enzyme was stable up to a temperature of about 40° C. and stable at a pH of about 6.0-9.5. […]

Sequence of maltose-trehalose converting enzyme derived from Pseudomonas putida H262 (Q88FN0 entry or part of it): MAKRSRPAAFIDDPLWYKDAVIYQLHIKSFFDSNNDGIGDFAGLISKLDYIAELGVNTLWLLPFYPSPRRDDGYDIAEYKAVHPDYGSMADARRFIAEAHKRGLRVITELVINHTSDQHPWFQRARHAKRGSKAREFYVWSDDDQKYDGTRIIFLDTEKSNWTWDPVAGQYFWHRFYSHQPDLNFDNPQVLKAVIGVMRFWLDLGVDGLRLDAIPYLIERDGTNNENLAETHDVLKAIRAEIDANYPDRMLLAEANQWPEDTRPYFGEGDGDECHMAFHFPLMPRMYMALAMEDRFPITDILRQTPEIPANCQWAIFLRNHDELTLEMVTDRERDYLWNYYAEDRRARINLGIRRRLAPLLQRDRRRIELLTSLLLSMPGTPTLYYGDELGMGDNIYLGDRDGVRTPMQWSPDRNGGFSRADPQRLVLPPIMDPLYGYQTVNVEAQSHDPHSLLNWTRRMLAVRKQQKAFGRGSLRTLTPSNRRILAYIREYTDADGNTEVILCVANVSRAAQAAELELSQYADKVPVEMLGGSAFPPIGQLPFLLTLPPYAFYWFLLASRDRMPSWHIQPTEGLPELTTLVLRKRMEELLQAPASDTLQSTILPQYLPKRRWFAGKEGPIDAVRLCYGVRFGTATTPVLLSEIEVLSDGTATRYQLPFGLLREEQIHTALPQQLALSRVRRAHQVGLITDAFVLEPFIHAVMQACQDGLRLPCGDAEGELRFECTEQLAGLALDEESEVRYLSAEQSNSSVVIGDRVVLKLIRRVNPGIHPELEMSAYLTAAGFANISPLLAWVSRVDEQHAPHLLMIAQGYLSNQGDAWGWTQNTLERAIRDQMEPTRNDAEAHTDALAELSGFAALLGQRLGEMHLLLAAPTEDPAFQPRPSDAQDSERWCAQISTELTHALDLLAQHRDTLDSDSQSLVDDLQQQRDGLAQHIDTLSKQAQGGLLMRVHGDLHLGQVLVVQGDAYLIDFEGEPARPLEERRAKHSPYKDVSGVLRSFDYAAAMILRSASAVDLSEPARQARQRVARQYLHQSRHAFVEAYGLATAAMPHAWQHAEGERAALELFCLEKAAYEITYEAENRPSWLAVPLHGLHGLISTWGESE

Structure (SMILES) | Inhibition of activity [1] | Inhibition of activity [2]
NC(CO)(CO)CO [Tris-HCl buffer] | inhibited; also recorded: inhibitory | inhibited; also recorded: inhibitory
[Cu+2] [Cu^++] | inhibited; also recorded: inhibitory | inhibited; also recorded: inhibitory
[Hg+2] [Hg^++] | inhibited; also recorded: inhibitory | inhibited; also recorded: inhibitory
